Reference: patent publication US20110119780A1, “SCREENING FOR NON-GENOTOXIC CARCINOGENS” (priority 2008, published 2011)
Where “and” joins values, the source holds several entries; their conditions need not be identical. Equal values may be shown once.

Tests used:
[1] = Pentobarbitone sleeping test; assay type: in vivo, mice; settings: male, single intraperitoneal dose 25 mg/kg
Description: In this experiment, the activity of these transcription factors in combination was determined by measuring the barbiturate induced sleeping time. Sleeping time has been known for many years to be directly proportional to the hepatic cytochrome P450 activity and this activity can be at least in part ascribed to the P450 levels in the liver determined by CAR and PXR function.
Mice were given a single intraperitoneal dose of Narcoren (sodium pentobarbitone; purchased via a Veterinary Consultant; distributed by Merial GmbH, Germany) at 25 mg/kg of body weight. The time taken for the mice to lose, and subsequently to regain, their righting reflex was measured.

[2] = tested on: hepatocellular hypertrophy; test: H&E staining of liver sections, Chlordane-treated mice; assay type: in vivo
Text: A 20× objective lens was used to capture the images.

[3] = PXR/CAR-dependent hepatomegaly by PB (body, liver weights); settings: 80 mg/kg IP x4 days; for Body weight - Day 1 / Body weight - Day 5 / Liver weight / Liver/Body weight Ratio: Mean ± SD
Text: In order to assess whether humanised PXR/CAR mice mimic the response to PB in humans, the huPXR/huCAR and PXRKO/CARKO mouse models were used. The mutant mouse strains were obtained from Artemis. The WT mouse strain C57BL/6J was obtained from Harlan (UK). All animals were between 10 and 16 weeks of age.The following parameters were studied: • Liver/body weight ratios • BrdU incorporation analysed as a measure of cell proliferation • Haematoxylin and eosin (H&E) liver histopathology • Expression and activity of P450s by SDS-PAGE and Western blotting in liver microsomes • Apoptotic indices as analysed by TUNEL assay in the liver
(§1) The study consisted of 6 groups with 10 WT mice per group, 9-10 PXRKO/CARKO mice per group and 9 huPXR/huCAR mice per group (Table 19). […] On Day 1 all animals were dosed with either 80 mg/kg PB/saline or saline alone by intraperitoneal injection for 4 days as detailed in Table 19.
Following treatment with PB or the vehicle, the mice were sacrificed and their livers were removed and weighed.

[4] = tested on: hepatocellular proliferation; test: Hepatic cell proliferation, BrdU incorporation (S-phase labelling index); settings: for % mean (S-phase labelling index relative to control of the same mouse line = 100) / % BrDu positive Cells, Mean / % BrDu positive Cells (hepatic S-phase labelling index), individual mouse: PB-treated; for % BrDu positive Cells, Mean: group mean; for % BrDu positive Cells (hepatic S-phase labelling index), individual mouse: individual animals
Description: Osmotic pumps containing BrdU (15 mg/ml/PBS) were implanted into WT, huPXR/huCAR and PXRKO/CARKO mice prior to PB treatment (80 mg/kg/4 days/IP). Livers sections were labelled using a Brdu antibody (Dako). All microscopic images were captured at a magnification of 40×. Data represents random sampling of 10 images per lobes (2) counting approximately 180,000 cells/animal group, as according to Pat-0013-0014. Values are expressed as Mean±SD, n=9-10 for control mice, n=8-9 for PB-treated mice.
as §1
All mouse liver and duodenum sections were analysed for BrdU incorporation as a measure of cell proliferation. The method used was an indirect BrdU labelling assay.

hepatocellular apoptosis = test: Liver in situ cell death, TUNEL labelling assay (apoptotic indices); assay type: in vivo; settings: WT, huPXR/huCAR and PXRKO/CARKO mice; Student's t-test
Text: Livers sections were labelled using a TUNEL in situ cell detection kit (Roche). […] Data represents random sampling of 20 images per lobes (2) counting approximately 380,000 cells/animal group.
However, no such consistency has been observed in mice. An indirect TUNEL labelling assay was used to analyse hepatic in situ death (FIG. 9/Table 21). The present study has shown a marker variation in apoptotic indices in mouse liver. Thus, small (e.g. 50%) compound-induced decreases, upon a low background, were not readily demonstrable.

[5] = tested on: hepatocellular hypertrophy; test: H&E analysis of liver sections, PB; assay type: in vivo, mice; settings: 80 mg/kg IP x4 days
Text: Portal vein (P) and central vein (C) are labelled. A 20× objective lens was used to capture the images.
Two samples of the liver (one from the lobe, one from the median lobe) and one sample of the small intestine were taken and preserved in 4% neutral buffered formaldehyde (NBF). The preserved liver samples of all mice of all groups were trimmed, processed and embedded in paraffin. The paraffin-embedded samples were sent to Progenix, Inverkeithing, UK where they were sectioned at a nominal thickness of about 5 æm and then stained with haematoxylin and eosin (H&E). One section of each organ sample was examined by Dr. Ortwin Vogel, Consultant Pathologist, Kiel, Germany. Subsequent to his histopatholoical analysis of all H&E stained mouse livers and small intestines, Dr. Vogel reported the following finding;

Cyp3a11 = test: Hepatic P450 induction: benzyloxyquinoline debenzylation (BQ) in liver microsomes; assay type: in vivo, mouse; settings: 80 mg/kg IP x4 days
Description: (§2) Each assay was performed on individual liver microsomes. Values are expressed as Mean±SD (n=9/10).

Cyp2b10 = test: Hepatic P450 induction: PROD and BROD in liver microsomes; assay type: in vivo, mouse; settings: 80 mg/kg IP x4 days
Description: as §2
BROD and PROD are markers of Cyp2b10 activity in the mouse. […] However, PROD or BROD activities were not altered in the PXRKO/CARKO mice upon exposure to PB. Overall, PB induced P450 catalytic activities in the WT and huPXR/huCAR mouse lines, but not in the animals which were devoid of these receptors.

Cyp1a1/1a2 = test: Hepatic P450 induction: MROD and EROD in liver microsomes; settings: 80 mg/kg IP x4 days
Description: as §2
P450 catalytic activities in the liver microsomal fractions were quantified. For the quantification of mouse Cyp2b10 and Cyp3a11 activities, the dealkylation of pentoxyresofurin (PROD) and the debenzylation of benzyloxyquinoline (BQ) activities, respectively. In addition, […] (BROD), methoxyresorufin-O-demethylase (MROD) and 7-ethoxyresorufin-)-deethylase (EROD) activities were also measured and evaluated (see FIG. 11).
EROD activity is indicative of Cyp1a1/1a2 and Cyp1b1 in the mouse, whereas MROD is a substrate for Cyp1a2. However, other isoforms may be contributing to the measured activities.

Cyp2b10 and Cyp3a11 = Cyp2b10 and Cyp3a11 protein in pooled liver microsomes by Western blotting, PB; assay type: in vivo, mouse
Description: Liver microsomes (0.3 ug) from each animal were pooled (n=9/10) for wild type, huPXR/huCAR and PXRKO/CARKO mice and characterised for Cyp2b10 and Cyp3a11 by immunoblotting using rabbit polyclonal CH4 (1:2000 dilution) and CH32 antibodies (1:2000 dilution), respectively (C. Henderson, University of Dundee, UK); +ve, control was either purified recombinant his-tagged Cyp3a11 membranes (0.1 pmol/u.l) or purified recombinant his-tagged Cyp2b10 membranes (O.Olpmol/u.l). Blots were developed using ECL and exposed for 30 secs.

Cyp3a11 and Cyp2b10 = test: Inductive effect of Phenobarbital in a panel of PXR/CAR knockout and humanised mice

CCCC(C)C1(CC)C(=O)NC(=O)NC1=O (centres unmarked) [pentobarbitone, sodium pentobarbitone]
Sleeping time ([1]; PXR/CAR hum (double humanised) mouse): 34 min
Sleeping time ([1]; Wt mouse): 21 min

ClC1=C(Cl)C2(Cl)C3C(Cl)C(Cl)CC3C1(Cl)C2(Cl)Cl (centres unmarked) [Chlordane]
hypertrophy on H&E staining ([2]; PXRKO/CARKO mice): not
liver finding on H&E staining ([2]; WT and hPXR_old/hCAR mice): hypertrophy

CCC1(c2ccccc2)C(=O)NC(=O)NC1=O [PB, Phenobarbital]
Body weight - Day 1, % mean own control ([3]; PXRKO/CARKO mice): (100 ± 8) %
Body weight - Day 5, % mean own control ([3]; PXRKO/CARKO mice): (98 ± 8) %
Liver weight, % mean own control ([3]; PXRKO/CARKO mice): (98 ± 16) %
Liver/Body weight Ratio, % mean own control ([3]; PXRKO/CARKO mice): (100 ± 9) %
Body weight - Day 1 ([3]; PXRKO/CARKO mice): 27.2 ± 2.2 g
Body weight - Day 5 ([3]; PXRKO/CARKO mice): 26.6 ± 2.2 g
Liver weight ([3]; PXRKO/CARKO mice): 1.42 ± 0.23 g
Liver/Body weight Ratio ([3]; PXRKO/CARKO mice): 5.3 ± 0.4
Body weight - Day 1, % mean own control ([3]; WT mice): (106 + 6) %
Body weight - Day 5, % mean own control ([3]; WT mice): (84 ± 5) %
Liver weight, % mean own control ([3]; WT mice): (101 ± 6) %
Body weight - Day 1 ([3]; WT mice): 26.4 ± 1.8 g
Body weight - Day 5 ([3]; WT mice): 23.2 ± 1.3 g
Liver weight ([3]; WT mice): 1.44 ± 0.09 g
Liver/Body weight Ratio ([3]; WT mice): 6.2 ± 0.2
Body weight - Day 1, % mean own control ([3]; huPXR/huCAR mice): (104 ± 5) %
Body weight - Day 5, % mean own control ([3]; huPXR/huCAR mice): (99 ± 6) %
Liver weight, % mean own control ([3]; huPXR/huCAR mice): (121 ± 11) %
Body weight - Day 1 ([3]; huPXR/huCAR mice): 26.3 ± 1.2 g
Body weight - Day 5 ([3]; huPXR/huCAR mice): 25.4 ± 1.5 g
Liver weight ([3]; huPXR/huCAR mice): 1.69 ± 0.16 g
Liver/Body weight Ratio ([3]; huPXR/huCAR mice): 6.7 ± 0.6
% mean (S-phase labelling index relative to control of the same mouse line = 100) ([4]; PXRKO/CARKO mice): 144%
% BrDu positive Cells, Mean ([4]; PXRKO/CARKO mice): 2.83%
% BrDu positive Cells (hepatic S-phase labelling index), individual mouse ([4]; PXRKO/CARKO mice): 2.16% and 1.98% and 1.82% and 2.30% and 3.77% and 5.10% and 3.71% and 1.88% and 3.06% and 2.51%
% mean (S-phase labelling index relative to control of the same mouse line = 100) ([4]; WT mice): 531%
% BrDu positive Cells, Mean ([4]; WT mice): 9.30%
% BrDu positive Cells (hepatic S-phase labelling index), individual mouse ([4]; WT mice): 9.45% and 5.54% and 16.69% and 6.32% and 9.50% and 8.09% and 7.64% and 13.60%
hepatocellular labelling index (S-phase), increase ([4]; WT mice, 80 mg/kg IP x4 days, BrdU): approximately 5 fold
% mean (S-phase labelling index relative to control of the same mouse line = 100) ([4]; huPXR/huCAR mice): 104%
% BrDu positive Cells, Mean ([4]; huPXR/huCAR mice): 2.00%
% BrDu positive Cells (hepatic S-phase labelling index), individual mouse ([4]; huPXR/huCAR mice): 0.37% and 0.-18% and 1.19% and 1.86% and 3.GO and 1.98% and 3.18% and 3.24% and 2.13%
effect on cell proliferation (BrdU labelling) ([4]; huPXR/huCAR or PXRKO/CARKO mice, 80 mg/kg IP x4 days): no effect
Hepatic apoptotic indices (TUNEL), PB-treated vs control (hepatocellular apoptosis): no statistical significance found
hepatocellular hypertrophy (H&E) ([5]; PXRKO/CARKO mice): no unequivocal evidence
liver growth response (hypertrophy, hyperplasia), conclusion ([5]; PXRKO/CARKO mice): did not induce hepatomegaly
liver growth response (hypertrophy, hyperplasia), conclusion ([5]; WT mice): induced hypertrophy and hyperplasia
centrilobular hepatocellular hypertrophy (H&E) ([5]; huPXR/huCAR and WT animals): slight to moderate
liver growth response (hypertrophy, hyperplasia), conclusion ([5]; huPXR/huCAR mice): induced hypertrophy but not hyperplasia
Cyp3a11 induction (BQ activity) (Cyp3a11; PXRKO/CARKO mice): absence of Cyp3a11 induction
BQ activity (Cyp3a11; WT animals, liver microsomes): marginal increase
BQ activity, increase (Cyp3a11; huPXR/huCAR mice, liver microsomes): 5 fold
PROD or BROD activities (Cyp2b10; PXRKO/CARKO mice): not altered
Cyp2b10 induction (BROD and PROD activities) (Cyp2b10; WT and huPXR/huCAR mouse lines, at similar levels): marker Cyp2b10 induction was observed
MROD and EROD enzyme activities (Cyp1a1/1a2; PXRKO/CARKO line): no increase
MROD and EROD enzyme activities (Cyp1a1/1a2; WT and huPXR/huCAR mice): increased
Cyp2b10 and Cyp3a11 protein induced (Western blotting) (Cyp2b10 and Cyp3a11; PXRKO/CARKO animals): not
Cyp2b10 and Cyp3a11 protein (Western blotting) (Cyp2b10 and Cyp3a11; WT and humanised mouse lines): induced
activation of Cyp3a11 and Cyp2b10 in vivo (Cyp3a11 and Cyp2b10): predominantly CAR-dependent
